Patent publication US20110015226A1, “Treatment of Energy Utilization Disease” (SUMMIT CORPORATION PLC, priority 2008, published 2011)
Like-named read-outs stand apart in the source and are kept apart here.

Columns and labels:
Assay type in all cases: biochemical
[1] = tested on: N-acetyl-β-D-glucosaminidase (Bovine kidney); assay: Glycosidase inhibition: N-acetyl-β-D-glucosaminidase (Bovine kidney); conditions: for % Nacetyl glucosaminidase inhibition at 0.8 mM Bovine kidney: approximately 0.8 mM;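 for all read-outs here: enzyme activity followed by cleavage of the matching p-nitrophenyl glycoside (5 mM) in phosphate buffer set to the enzyme's optimal pH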
[2] = biological target: T1, β-Glucuronidase Bovine liver (Bos taurus, UniProt A3KMY8); assay: Glycosidase inhibition: β-Glucuronidase Bovine liver; conditions: for % Glucuronidase inhibition at 0.8 mM Bovine Liver: approximately 0.8 mM;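 for all read-outs here: bovine liver β-glucuronidase acting on p-nitrophenyl β-D-glucuronide substrate in citric acid/disodium hydrogen phosphate buffer, pH 5.0, 27 °C, mean of triplicate runs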
T1 construct: The assay involved the use of Bovine liver β-glucuronidase; purchased Sigma; host or cells: bovine liver
T1 sequence (A3KMY8 1-652): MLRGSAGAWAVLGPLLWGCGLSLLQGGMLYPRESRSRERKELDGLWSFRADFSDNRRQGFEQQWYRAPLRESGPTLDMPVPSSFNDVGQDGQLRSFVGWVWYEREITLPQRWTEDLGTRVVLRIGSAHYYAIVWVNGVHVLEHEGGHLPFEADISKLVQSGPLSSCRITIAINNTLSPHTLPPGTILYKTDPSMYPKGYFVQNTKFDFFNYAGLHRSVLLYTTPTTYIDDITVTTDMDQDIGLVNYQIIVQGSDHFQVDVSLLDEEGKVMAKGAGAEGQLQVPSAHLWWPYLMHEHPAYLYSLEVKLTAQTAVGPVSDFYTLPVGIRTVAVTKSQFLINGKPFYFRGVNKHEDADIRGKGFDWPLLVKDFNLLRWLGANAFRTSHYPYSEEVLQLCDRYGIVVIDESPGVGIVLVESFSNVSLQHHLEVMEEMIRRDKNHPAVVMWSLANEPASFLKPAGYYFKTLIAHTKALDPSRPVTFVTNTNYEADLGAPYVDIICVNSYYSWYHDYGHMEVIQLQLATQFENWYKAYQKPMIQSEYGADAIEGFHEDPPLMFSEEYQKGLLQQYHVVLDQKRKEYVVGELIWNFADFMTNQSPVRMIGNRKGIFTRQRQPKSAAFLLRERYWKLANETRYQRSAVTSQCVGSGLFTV

[3] = biological target: T2, α-D-glucosidase (Yeast) (Saccharomyces cerevisiae, UniProt P53341); assay: Glycosidase inhibition: α-D-glucosidase (Yeast); conditions: compounds tested at 0.8 mM
T2 construct: purchased Sigma
T2 sequence (P53341 whole entry): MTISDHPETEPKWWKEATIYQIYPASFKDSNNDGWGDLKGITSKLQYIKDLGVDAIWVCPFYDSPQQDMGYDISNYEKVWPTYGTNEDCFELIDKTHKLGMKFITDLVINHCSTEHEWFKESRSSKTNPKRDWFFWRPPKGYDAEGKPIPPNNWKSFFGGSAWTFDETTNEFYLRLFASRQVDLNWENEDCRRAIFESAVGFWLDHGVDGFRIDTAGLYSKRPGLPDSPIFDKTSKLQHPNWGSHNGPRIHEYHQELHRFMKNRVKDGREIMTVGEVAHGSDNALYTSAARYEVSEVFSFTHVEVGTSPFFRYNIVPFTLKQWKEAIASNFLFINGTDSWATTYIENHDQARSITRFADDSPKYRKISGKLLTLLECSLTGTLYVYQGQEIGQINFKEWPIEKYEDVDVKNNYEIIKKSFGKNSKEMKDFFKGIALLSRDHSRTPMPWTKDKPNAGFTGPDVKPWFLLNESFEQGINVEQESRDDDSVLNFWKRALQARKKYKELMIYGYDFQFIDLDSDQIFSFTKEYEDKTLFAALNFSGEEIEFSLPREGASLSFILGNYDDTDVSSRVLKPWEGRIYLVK
From the text: (§1) The results tabulated below were obtained using commercially available glycosidases and p-nitrophenyl-substrates using standard methods described for example by Watson et al (1997) Phytochemistry 46 255-259. All enzymes and substrates were bought from Sigma. Enzyme and substrate solutions were made using sodium phosphate buffers at the pH optima values. The enzymes used were α-D-glucosidase Saccharomyces cerevisiae, Bacillus stearothermophilus, Oryzae sativa), β-D-glucosidase (Almond), α-D-mannosidase (Jack bean), α-D-galactosidase (Green coffee beans), β-D-galactosidase (Bovine liver), α-L-fucosidase (Bovine kidney), N-acetyl-β-D-glucosaminidase (Bovine kidney, Jack bean, Aspergillus oryzae), Naringinase (Penicillium decumbens) and amyloglucosidase (Aspergillus niger). All enzymes were used with the appropriate p-nitrophenyl substrates (5 mM). Amyloglucosidase activity was measured using amylopectin (0.1%) (Merck) mixed with sodium phosphate buffer, pH 4.5 in a glass bottle, and healed in a boiling water bath for 20 minutes to dissolve with released glucose measured using ‘Trinder’ glucose detection solution (Sigma).
(§2) All enzymes and para-nitrophenyl substrates were purchased from Sigma, with the exception of beta-mannosidase which came from Megazyme. Enzymes were assayed at 27° C. in 0.1M citric acid/0.2M disodium hydrogen phosphate buffers at the optimum pH for the enzyme. The incubation mixture consisted of 10 μl enzyme solution, 10 μl of 1 mg/ml aqueous solution of extract and 50 μl of the appropriate 5 mM para-nitrophenyl substrate made up in buffer at the optimum pH for the enzyme. The reactions were stopped by addition of 70 μl 0.4M glycine (pH 10.4) during the exponential phase of the reaction, which had been determined at the beginning using uninhibited assays in which water replaced inhibitor. Final absorbances were read at 405 nm using a Versamax microplate reader (Molecular Devices). Assays were carried out in triplicate, and the values given are means of the three replicates per assay. (See Watson, A. A., Nash, R. J., Wormald, M. R., Harvey, D. J., Dealler, S., Lees, E., Asano, N., Kizu, H., Kato, A., Griffiths, R. C., Cairns, A. J. and Fleet, G. W. J. (1997). Glycosidase-inhibiting pyrrolidine alkaloids from Hyacinthoides non-scripta. Phytochemistry 46 (2): 255-259.)

[4] = biological target: α-D-glucosidase (Bacillus) (Geobacillus stearothermophilus, UniProt A0ACH1E9U3); assay: Glycosidase inhibition: α-D-glucosidase (Bacillus); conditions: compounds tested at 0.8 mM
α-D-glucosidase (Bacillus), sequence (A0ACH1E9U3 entry or part of it): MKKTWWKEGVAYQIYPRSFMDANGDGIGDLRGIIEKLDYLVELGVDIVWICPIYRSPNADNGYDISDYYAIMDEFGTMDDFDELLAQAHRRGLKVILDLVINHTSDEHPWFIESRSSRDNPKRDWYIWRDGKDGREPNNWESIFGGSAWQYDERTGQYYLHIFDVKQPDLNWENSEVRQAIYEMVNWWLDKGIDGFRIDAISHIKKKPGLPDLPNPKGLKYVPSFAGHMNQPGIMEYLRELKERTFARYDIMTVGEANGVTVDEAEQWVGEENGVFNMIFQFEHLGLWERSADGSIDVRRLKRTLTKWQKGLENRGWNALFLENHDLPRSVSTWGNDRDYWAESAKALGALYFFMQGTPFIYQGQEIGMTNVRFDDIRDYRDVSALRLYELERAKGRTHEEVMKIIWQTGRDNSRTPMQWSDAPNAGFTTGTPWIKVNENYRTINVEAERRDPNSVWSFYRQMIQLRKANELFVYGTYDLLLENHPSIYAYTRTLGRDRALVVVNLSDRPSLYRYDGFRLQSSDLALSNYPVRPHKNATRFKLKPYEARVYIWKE
From the text: as §1, §2

[5] = biological target: T3, α-D-glucosidase (Rice) (Oryza sativa subsp. japonica, UniProt Q653V7); assay: Glycosidase inhibition: α-D-glucosidase (Rice); conditions: compounds tested at 0.8 mM
T3 construct: purchased Sigma
T3 sequence (Q653V7 34-885): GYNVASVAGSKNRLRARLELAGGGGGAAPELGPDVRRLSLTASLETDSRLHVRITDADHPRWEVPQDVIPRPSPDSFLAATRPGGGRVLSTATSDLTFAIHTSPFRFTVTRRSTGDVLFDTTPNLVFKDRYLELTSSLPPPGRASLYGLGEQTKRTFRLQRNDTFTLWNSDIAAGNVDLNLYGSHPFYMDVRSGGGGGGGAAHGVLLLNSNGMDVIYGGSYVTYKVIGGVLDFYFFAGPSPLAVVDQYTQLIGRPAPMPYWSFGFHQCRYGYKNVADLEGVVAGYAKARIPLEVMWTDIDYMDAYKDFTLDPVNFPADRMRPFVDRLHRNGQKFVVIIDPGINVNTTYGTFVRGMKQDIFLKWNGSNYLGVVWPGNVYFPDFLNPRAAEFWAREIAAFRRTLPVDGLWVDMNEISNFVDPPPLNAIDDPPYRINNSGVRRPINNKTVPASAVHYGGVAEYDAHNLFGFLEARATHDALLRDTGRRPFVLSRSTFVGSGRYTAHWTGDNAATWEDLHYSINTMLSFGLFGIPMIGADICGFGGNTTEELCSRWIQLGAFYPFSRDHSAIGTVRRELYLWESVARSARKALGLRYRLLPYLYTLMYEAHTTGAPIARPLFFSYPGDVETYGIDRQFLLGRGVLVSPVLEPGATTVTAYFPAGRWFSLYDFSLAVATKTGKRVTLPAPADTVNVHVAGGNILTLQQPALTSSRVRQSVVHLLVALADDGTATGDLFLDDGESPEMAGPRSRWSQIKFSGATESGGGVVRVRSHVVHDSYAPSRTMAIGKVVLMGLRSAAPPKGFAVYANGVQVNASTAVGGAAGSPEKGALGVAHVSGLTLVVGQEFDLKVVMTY

[6] = biological target: T4, α-D-galactosidase Green coffee bean (Coffea arabica, UniProt Q42656); assay: Glycosidase inhibition: α-D-galactosidase Green coffee bean; conditions: compounds tested at 0.8 mM
T4 construct: α-D-galactosidase (Green coffee beans); purchased Sigma; host or cells: green coffee beans
T4 sequence (Q42656 16-378): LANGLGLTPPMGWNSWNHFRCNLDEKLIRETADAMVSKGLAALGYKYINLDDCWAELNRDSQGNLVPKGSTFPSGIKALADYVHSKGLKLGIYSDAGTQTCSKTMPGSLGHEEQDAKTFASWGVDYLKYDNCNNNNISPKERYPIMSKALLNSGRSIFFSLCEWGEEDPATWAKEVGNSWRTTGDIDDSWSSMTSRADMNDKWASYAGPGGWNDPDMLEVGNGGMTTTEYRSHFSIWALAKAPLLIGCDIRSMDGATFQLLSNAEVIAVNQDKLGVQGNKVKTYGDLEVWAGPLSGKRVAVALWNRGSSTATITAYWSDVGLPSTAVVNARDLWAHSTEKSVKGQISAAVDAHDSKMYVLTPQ
From the text: as §1, §2

[7] = biological target: T5, α-L-fucosidase Bovine kidney (Bos taurus, UniProt Q2KIM0); assay: Glycosidase inhibition: α-L-fucosidase Bovine kidney; conditions: compounds tested at 0.8 mM
T5 construct: α-L-fucosidase (Bovine kidney); purchased Sigma; host or cells: bovine kidney
T5 sequence (Q2KIM0 23-468): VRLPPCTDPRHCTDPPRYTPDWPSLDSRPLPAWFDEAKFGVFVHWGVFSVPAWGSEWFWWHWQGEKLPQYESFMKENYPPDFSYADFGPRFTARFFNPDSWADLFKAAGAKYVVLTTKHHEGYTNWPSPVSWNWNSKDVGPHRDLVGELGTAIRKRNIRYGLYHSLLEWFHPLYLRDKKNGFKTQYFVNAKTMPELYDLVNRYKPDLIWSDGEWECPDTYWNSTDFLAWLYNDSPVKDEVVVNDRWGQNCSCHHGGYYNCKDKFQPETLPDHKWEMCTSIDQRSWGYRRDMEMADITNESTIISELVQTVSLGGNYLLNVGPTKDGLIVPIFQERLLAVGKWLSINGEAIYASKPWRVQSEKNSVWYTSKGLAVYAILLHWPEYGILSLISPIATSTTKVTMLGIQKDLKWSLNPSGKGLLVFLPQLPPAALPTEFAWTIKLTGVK

[8] = biological target: T6, α-D-mannosidase Jack bean (Canavalia ensiformis, UniProt C0HJB3); assay: Glycosidase inhibition: α-D-mannosidase Jack bean; conditions: compounds tested at 0.8 mM
T6 construct: α-D-mannosidase (Jack bean); purchased Sigma
T6 sequence (C0HJB3 1-981): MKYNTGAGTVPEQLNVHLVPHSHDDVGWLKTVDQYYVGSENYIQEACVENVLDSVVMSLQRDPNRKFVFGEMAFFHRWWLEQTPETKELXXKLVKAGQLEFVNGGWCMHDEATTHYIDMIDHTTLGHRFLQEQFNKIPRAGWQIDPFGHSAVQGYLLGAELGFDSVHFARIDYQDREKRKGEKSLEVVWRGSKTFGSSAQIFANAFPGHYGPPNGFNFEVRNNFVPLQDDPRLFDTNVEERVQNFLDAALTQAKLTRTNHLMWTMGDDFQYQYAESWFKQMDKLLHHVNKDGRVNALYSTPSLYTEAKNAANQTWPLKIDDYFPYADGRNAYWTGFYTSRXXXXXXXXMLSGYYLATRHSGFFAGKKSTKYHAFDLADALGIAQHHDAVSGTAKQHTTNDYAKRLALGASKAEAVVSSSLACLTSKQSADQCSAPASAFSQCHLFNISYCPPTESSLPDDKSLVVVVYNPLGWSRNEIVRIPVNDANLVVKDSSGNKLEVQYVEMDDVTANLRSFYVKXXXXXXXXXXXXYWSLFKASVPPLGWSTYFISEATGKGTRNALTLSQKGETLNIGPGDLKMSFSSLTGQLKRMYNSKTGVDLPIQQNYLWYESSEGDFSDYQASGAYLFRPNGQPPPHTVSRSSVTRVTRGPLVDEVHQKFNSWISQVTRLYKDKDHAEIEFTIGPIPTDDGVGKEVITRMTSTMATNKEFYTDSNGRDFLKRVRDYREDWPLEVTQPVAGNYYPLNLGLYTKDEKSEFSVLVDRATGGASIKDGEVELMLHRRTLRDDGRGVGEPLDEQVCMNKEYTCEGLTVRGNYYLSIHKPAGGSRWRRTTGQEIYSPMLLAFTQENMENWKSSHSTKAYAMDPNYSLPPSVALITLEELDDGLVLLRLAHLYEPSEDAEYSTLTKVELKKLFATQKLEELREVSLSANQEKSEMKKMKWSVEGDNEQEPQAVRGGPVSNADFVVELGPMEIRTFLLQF

[9] = biological target: T7, N-acetyl-β-D-glucosaminidase (A. oryzae) (Aspergillus oryzae, UniProt Q8J2T0); assay: Glycosidase inhibition: N-acetyl-β-D-glucosaminidase (A. oryzae); conditions: compounds tested at 0.8 mM
T7 construct: purchased Sigma
T7 sequence (Q8J2T0 97-600): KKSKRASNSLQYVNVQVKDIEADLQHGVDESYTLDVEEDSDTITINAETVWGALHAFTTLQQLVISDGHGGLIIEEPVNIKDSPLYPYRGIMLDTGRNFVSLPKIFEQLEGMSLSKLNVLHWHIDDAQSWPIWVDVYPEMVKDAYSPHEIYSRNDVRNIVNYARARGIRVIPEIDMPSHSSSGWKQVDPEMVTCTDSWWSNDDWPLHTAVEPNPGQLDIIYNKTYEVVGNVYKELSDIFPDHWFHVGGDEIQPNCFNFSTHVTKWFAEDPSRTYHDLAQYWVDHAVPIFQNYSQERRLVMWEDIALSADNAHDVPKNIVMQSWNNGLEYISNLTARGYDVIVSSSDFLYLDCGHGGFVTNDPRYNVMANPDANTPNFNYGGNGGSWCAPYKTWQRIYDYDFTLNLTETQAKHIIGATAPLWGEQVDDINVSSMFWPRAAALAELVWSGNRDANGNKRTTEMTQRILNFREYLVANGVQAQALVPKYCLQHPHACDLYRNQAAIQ
From the text: as §1, §2

[10] = biological target: T8, Amyloglucosidase Aspergillus niger (Aspergillus niger, UniProt P69328); assay: Glycosidase inhibition: Amyloglucosidase Aspergillus niger; conditions: compounds tested at 0.8 mM
T8 construct: purchased Sigma
T8 sequence (P69328 25-640): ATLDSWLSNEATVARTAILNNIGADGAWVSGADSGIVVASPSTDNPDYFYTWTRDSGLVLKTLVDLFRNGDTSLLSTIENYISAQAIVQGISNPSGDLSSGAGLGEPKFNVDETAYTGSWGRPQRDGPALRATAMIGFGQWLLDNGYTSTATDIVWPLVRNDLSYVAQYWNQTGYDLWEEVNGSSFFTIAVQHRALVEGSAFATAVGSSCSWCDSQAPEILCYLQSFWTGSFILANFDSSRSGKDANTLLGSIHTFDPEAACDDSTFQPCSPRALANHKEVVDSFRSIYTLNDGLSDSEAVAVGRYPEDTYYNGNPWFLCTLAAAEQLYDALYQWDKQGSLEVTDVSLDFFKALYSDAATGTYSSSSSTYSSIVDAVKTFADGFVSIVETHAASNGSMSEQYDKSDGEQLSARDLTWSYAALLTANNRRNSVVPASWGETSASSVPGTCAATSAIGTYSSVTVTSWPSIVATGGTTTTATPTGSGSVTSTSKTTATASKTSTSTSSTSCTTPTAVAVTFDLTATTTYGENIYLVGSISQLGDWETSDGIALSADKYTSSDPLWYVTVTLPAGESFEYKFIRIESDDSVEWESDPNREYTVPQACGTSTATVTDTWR
From the text: as §1, §2

[11] = read-out: IC50 Glucuronidase Bovine Liver
[12] = read-out: IC50 Nacetyl glucosaminidase Bovine kidney

SMILES	% Nacetyl glucosaminidase inhibition at 0.8 mM Bovine kidney [1] [%]	% Glucuronidase inhibition at 0.8 mM Bovine Liver [2] [%]	further results
C[N+]1([O-])CC[C@H](O)[C@@H]1C(=O)O (some centres unmarked)	−0.6	−4.4	
O=C(O)[C@H]1NC[C@H](O)[C@@H](O)[C@@H]1O [drawing 22]	2.4	88.9	IC50 [2, 11]: 107 µM
O=C(O)CN1C[C@@H](O)[C@H](O)[C@H]1CO [Compound T4, 2-((2R,3R,4R)-3,4-Dihydroxy-2-(hydroxymethyl)pyrrolidin-1-yl)acetic acid]			inhibition at 800 µM [3]: < 50%; inhibition at 800 µM [4]: < 50%; inhibition at 800 µM [5]: < 50%; inhibition at 800 µM [6]: < 50%; inhibition at 800 µM [7]: < 50%; inhibition at 800 µM [8]: < 50%; % inhibition, N-acetyl-β-D-glucosaminidase (Bovine kidney) ([1]; compounds tested at 0.8 mM): 81.9%; IC50 ([1]; read-out: IC50, N-acetyl-β-D-glucosaminidase (Bovine kidney)): 39.6 µM; inhibition at 800 µM [9]: < 50%; inhibition at 800 µM [10]: < 50%; IC50 ([2]; pH 5.0, 27° C., p-nitrophenyl β-D-glucuronide, read-out: IC50, β-Glucuronidase Bovine liver): 160 µM
O=C(O)[C@H]1N[C@H](CO)C(O)[C@H](O)[C@@H]1O (some centres unmarked)	25.8	3.3	
C[N+]1(C)C[C@@H](O)[C@H](O)[C@H]1C(=O)[O-]	8	3.8	
O=C(O)CN1C[C@@H](O)[C@@H](O)C1[C@@H](O)CO (some centres unmarked)	82.3	4	IC50 [1, 12]: 137 µM
CCC1CC(CC2CC(CCCC(C)C)[C@@H](CC)C(C)[C@H]2C)C(C)C(C)C1C (some centres unmarked)	49.4	3.9	
O=C(O)[C@@H]1[C@@H](O)[C@H](O)[C@H]2[C@@H](O)CCN21	5.1	−2.3	
O=C(O)[C@H]1NC(=O)[C@H](O)[C@@H](O)[C@@H]1O	−5.2	99.6	IC50 [2, 11]: 0.04 µM
Cn1c(=O)c2c(ncn2C)n(C)c1=O [Caffeine, reference compound]			Mean % Inhibition, N-acetyl-β-D-glucosaminidase Bovine kidney ([1]; 143 ug/ml): 1.3%; inhibition at 143 µg/mL ([2]; 143 ug/ml): -2.4%
O=C(O)[C@@]1(O)CNC[C@@H](O)[C@H]1O	4.8	58.6	IC50 [2, 11]: 531 µM
CC(CC(N)C(=O)O)C(=O)O (centres unmarked)	0.8	−1.6	
O=C(O)[C@]1(O)NC[C@@H](O)[C@H]1O	2.9	1.4	
CN1C[C@H](O)C[C@H]1C(=O)O	−4.7	−3.7	
N[C@]1(C(=O)O)C[C@H](CO)C1	7.1	−2.2	
C[N+]1(C)CCC[C@H]1C(=O)[O-]	2.3	−1.7	
O=C(O)[C@H]1NCC(O)C1O (some centres unmarked)	6.6	13.8	
CC[C@@H]1C(C)[C@H](C)CN1CCCC(C)=O (some centres unmarked)	17	−2	
CC[C@@H]1C(=O)[C@H](O)CN1CCCCC(=O)O	8	0.8	
C[C@@]1(C(=O)O)NC[C@H](O)[C@H]1O	7.6	0.6	
O=C(O)CCC1[C@H](CO)C(=O)[C@H](O)[C@H]1CO (some centres unmarked)	90.1	85.3	IC50 [1, 12]: 5.1 µM; IC50 [2, 11]: 81 µM
CC(=O)NC1NC[C@H](C(=O)O)[C@H](O)[C@@H]1O (some centres unmarked)	57.9	97.9	IC50 [2, 11]: 7.3 µM
CC(O)(CC(N)C(=O)O)C(=O)O (centres unmarked)	−4.2	−3.2	
